The test system of series [1] is feral pigs. The following applies: for Mean peak Met hb: approximate peak. The text has this: The captive feral pig colony at Robert Wicks Pest Animal Research Centre (Queensland Department of Natural Resource, Mines and Water) was comprised of feral pigs harvested by commercial harvesters in the area surrounding Inglewood, Queensland. A variety of sexes, ages and sizes were drawn at random from the captive colony and used in these trials. Feral pigs were housed in the purpose built feral pig accommodation.
This trial occurred in January 2006. The trial design is set out in FIG. 5. Twenty-one fasted captive feral pigs were anaesthetised with ketamine (20 mgkg^−1) and xylazine (1.2 mgkg^−1) by intramuscular injection with a 16 gauge needle into the quadriceps muscle. […] The resulting liquid was then administered by oesophageal gavage to an individual feral pig. A number of sodium nitrate dosages were trialled on different groups of feral pigs. After administration, feral pigs were observed carefully for clinical signs and death. […] Each dose rate contained three feral pigs.
This was done on an identical manner to the placebo feral pigs.
Feral pigs were then sampled opportunistically at various times over the following minutes or hours. […] Feral pigs which recovered from anaesthetic quickly, or were large, were sampled less frequently than other feral pigs. All feral pigs were also blood sampled immediately after death (within 1 minute). The blood samples were used to assess Methaemoglobin levels (Met […] Hb). An automated radio-oximeter (model ABL520 supplied by Radiometer Copenhagen) was used for blood Met Hb analysis. The Met Hb data from each individual within a group was pooled to provide dose response curves for multiple feral pigs administered at a single dose rate. The feral pigs which received 135 mgkg^−1 were not blood sampled until after death. A post mortem examination was conducted on all feral pigs.
Serial Met Hb levels were pooled for each group of feral pigs receiving a single dose rate and plotted against time. Trend-lines were fitted to the data. Logarithmic functions were used for the three higher dose rates, while a polynomial trend line was fitted to the 90 mgkg^−1 feral pig group. […] This program makes few assumptions about data and consists of a range of univariate, multivariate and graphical routines for analysing matrices of samples. Specifically, ordination by multidimensional scaling (MDS) was used to visually differentiate feral pigs based on variables (time to death, peak Met haemoglobin levels, time to dyspnoea and time to vomiting). One factor was used, dose rate. Data was normalized and 30 random resets occurred. ANOSIM was used to determine whether significant differences between these variables were due to dose rate. SIMPER (a function of Primer) was used to determine dissimilarity between dose rates, or what dose rates were most dissimilar.

The test system of series [2] is feral pigs. The experiment in a line: Bait delivery trial: sodium nitrite to feral pigs in food. It is filed as in vivo, feral pig. Here is the method: The trials were conducted in October 2005 and June 2006. Both trials were designed to test the hypothesis that SN would be lethal to feral pigs when they consumed the toxin freely in food. […] Before the toxin trial, each feral pig was pre-fed daily for 10 days with the bait substrate they were to receive during the toxin trial (bait or dry wheat). During the trial, six feral pigs acted as controls, receiving no toxin, but receiving bait substrate (carrier material). Three of these received wheat and three received the manufactured baits of the type described in Example 2. The remaining 18 feral pigs were divided into three groups of six animals. Three pigs in each group received 250 or 500 g (depending on body size and therefore total toxic dose to deliver) of wheat and the other three received one or two the baits (again, amount of toxin dependent). […] Feral pigs were observed every 15 minutes for 6 hours, then hourly for 6 hours, then at euthanasia 12 hours after clinical signs developed (if they remained alive). Each dose rate contained six animals divided evenly amongst two bait carrier materials. Six controls were used.

A further series concerns dingos. The settings on record: bait delivered 1080, captive trials; cited from earlier work.
Where [3] appears, read: 44.8 kg male with profuse bleeding into the thorax.
Setting [4] is: gavage, doses of 135 mgkg^-1 or above, nine feral pigs.

This is an account of results in US9750242B2, “Nitrite salts as poisons in baits for omnivores” (priority 2007, dated 2017).

SMILES strings stand for the structures. Read-outs that look alike come from different tables or passages of the source.

Consider `O=NO` [SN, Sodium nitrite], for which the “Approximate bait lethal dose” value in the series on Raccoon was ~150 mg/kg; in the series with Northern brown bandicoot it was ~696 mg/kg; with Rat, ~291 mg/kg; in the series with Mouse it was ~705 mg/kg; in the series with Common brushtail possum, ~489 mg/kg; in the series on Pig, ~310 mg/kg. The “Approximate lethal SN dose” value in the series with Raccoon (body size 3 kg) is listed as ~0.75 gm; in the series with Northern brown bandicoot (body size 2 kg) it was ~1.4 gm; in the series with Rat (body size 0.1 kg), ~0.03 gm; in the series with Mouse (body size 0.03 kg) it was ~0.02 gm; with Common brushtail possum (body size 4 kg), ~2.0 gm; with Pig (body size 50 kg), ~15.5 gm. Besides, the “peak Met Hb level, individual pig” value in the series on feral pigs [1] (setting [3]) came out at 90.1%. The “time to death after gavage, individual pig” value in the series on feral pigs [1] (setting [3]) came out at 47 min. Moreover, the post mortem abnormalities result with feral pigs [1] (90 mgkg^-1 group) was “no abnormalities were detected”. In addition, the “post mortem abnormalities, only consistent sign” value in the series on feral pigs [1] (all animals which died following nitrite ingestion) is “dark or chocolate coloured blood and subsequent discolouration of organs and tissues which are well vascularised”. Further, the “Met Hb levels in surviving pigs” value in the series on feral pigs [1] (gavage 90 mg/kg, 14 hours post administration, two survivors) was “near zero”. Further, in the series on feral pigs [1] (gavage 90 mgkg^-1), the “deaths of animals dosed” value is “one of three”. For the same molecule, the “period of lethargy (lessened gradually)” value in the series with feral pigs [1] (gavage 90 mgkg^-1) lay in the range of 4 to 6 h. In addition, the Death/survival is recorded as 1/2 in the series with feral pigs [1] (gavage 90 mgkg^-1, 3 feral pigs); 3/0 in the series with feral pigs [1] (gavage 135 mgkg^-1, 3 feral pigs); 3/0 in the series on feral pigs [1] (gavage 180 mgkg^-1, 3 feral pigs); 3/0 with feral pigs [1] (gavage 180 mgkg^-1 with Na2CO3 (30 g), 3 feral pigs). For the same molecule, in the series with feral pigs [1] (gavage 90 mgkg^-1, following blood sampling), the “time to death of one animal after dosing” value was “approximately 5 hours”. Also, the vomiting result was “two of three animals” in the series with feral pigs [1] (gavage 90 mgkg^-1, three hours after intoxication) and “Seven animals vomited between 1-4 times” in the series with feral pigs [1] (gavage >=135 mgkg^-1, nine animals). In addition, the “Mean peak Met hb” value is 55^3% in the series with feral pigs [1] (gavage 90 mgkg^-1, two from three animals assessed); 89 ± 6% with feral pigs [1] (gavage 135 mgkg^-1); 83 ± 8% in the series on feral pigs [1] (gavage 180 mgkg^-1); 80 ± 15% with feral pigs [1] (gavage 180 mgkg^-1 with Na2CO3). In addition, the entries for the “Mean time to death” value with feral pigs [1] (gavage 135 mgkg^-1), with feral pigs [1] (gavage 180 mgkg^-1) and in the series on feral pigs [1] (gavage 180 mgkg^-1 with Na2CO3) were 115 ± 18 min, 87 ± 16 min and 52 ± 26 min, respectively. For the same molecule, the “in-coordination, paddling and short convulsive seizures” value with feral pigs [1] (gavage >=135 mgkg^-1, close to time of death) is “two of nine animals”. In the series on feral pigs [1] (gavage >=135 mgkg^-1, most animals), the “time to dyspnoea after gavage” value is 30 to 60 min. In addition, the “effect on blood Met Hb values” in the series with feral pigs [1] (gavage, all feral pigs that were sampled) is reported as “rapid increases in blood Met Hb values”. The “range of time to death” value with feral pigs [1] (gavage, doses of 135 mgkg^-1 or above) was in the range of 42 to 130 min. The deaths entry with feral pigs [1] (setting [4]) was “All nine feral pigs that received doses of 135 mgkg^−1 or above died”; with feral pigs [2] (135 mgkg^-1 in bait substrate, six animals) it was “none died”; in the series with feral pigs [2] (270 mgkg^-1 consumed, five animals) it was “one of these died”; with feral pigs [2] (540 mgkg^-1 consumed in either bait substrate, 2 for each substrate) it was 4/4. Also, the figures for the “mean time to death (S.D.)” value in the series on feral pigs [1] (setting [4]), in the series with feral pigs [2] (all dead animals) and in the series with feral pigs [2] (animals that received the full 540 mgkg^-1 dose) were 106 ± 75 min, 141 ± 49 min and 122 ± 49 min, respectively. Besides, the “mean peak Met Hb level in killed feral pigs” value in the series on feral pigs [1] (gavage, killed feral pigs) turned out to be 82%. Moreover, the “Approximate gavage lethal dose” value in the series on Northern brown bandicoot was ~232 mg/kg; in the series on Rat, ~97 mg/kg; in the series on Mouse, ~235 mg/kg; with Common brushtail possum, ~163 mg/kg; with Pig, ~103 mg/kg. Besides, the figures for the “mean time that clinical signs were displayed” value in the series on feral pigs [2] (all animals) and with feral pigs [2] (animals receiving the full 540 mgkg^-1 dose) were 84 ± 41 min and 80 ± 51 min, respectively. Also, the “outcome of one animal with partial dose” value in the series on feral pigs [2] (approximately 400 mgkg^-1 in wheat (370 g of 500 g eaten)) was “still died”.

Take `O=C([O-])[O-].[Na+].[Na+]` [Sodium carbonate, sodium carbonate, reference compound]: the “synergism with SN (Met Hb curves)” value with feral pigs [1] (30 g sodium carbonate followed by 180 mgkg^-1 SN, gavage) was “did not appear to act as a synergist”.

On to `O=C(O)CF` [Example 1080, sodium fluoroacetate], for which, in the series on dingos, the LD50 dose is reported as 0.11 mg/kg.
